Data on one compound can be found in article PMC10951314 (Nature Communications, 2024).

Each structure is given as a SMILES string.

The target in one assay is T1, MavL42-435 (Legionella pneumophila, UniProt Q5ZSJ1).
T1 construct: gene lpg2526

The target in the next assay is T2, MavL42-435-UbVME (Legionella pneumophila, UniProt Q5ZSJ1).
T2 construct: gene lpg2526

In general, Kd refers to the free concentration of one partner at which half of the binding sites on the other are occupied at equilibrium, for simple one-to-one binding.

T1 sequence (Q5ZSJ1 42-435 limits assumed): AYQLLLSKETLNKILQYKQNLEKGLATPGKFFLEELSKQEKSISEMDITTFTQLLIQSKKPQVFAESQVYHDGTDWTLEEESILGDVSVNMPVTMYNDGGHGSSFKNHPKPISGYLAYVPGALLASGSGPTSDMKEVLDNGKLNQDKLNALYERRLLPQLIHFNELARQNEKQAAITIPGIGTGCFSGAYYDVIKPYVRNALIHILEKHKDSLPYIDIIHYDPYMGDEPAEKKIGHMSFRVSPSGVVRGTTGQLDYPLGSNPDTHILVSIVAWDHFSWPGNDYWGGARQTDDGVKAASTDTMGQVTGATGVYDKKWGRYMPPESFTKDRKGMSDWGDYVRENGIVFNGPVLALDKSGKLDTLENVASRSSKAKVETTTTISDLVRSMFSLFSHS

On MavL42-435, `Nc1ncnc2c1ncn2[C@@H]1O[C@H](COP(=O)(O)OP(=O)(O)OC[C@H]2OC(O)[C@H](O)[C@@H]2O)[C@@H](O)[C@H]1O` (some centres unmarked) [ADPR] came in with a Kd of 25.8 µM. At MavL42-435-UbVME, the “X-ray crystal structure, 2.15 Å (crystal soak)” value was “we observed electron density for ADPR in one of the MavL-UbVME subunits”.
